Ends that are not written are not given here.
How the values were obtained:
[1] = test system: ribosomes on endogenous globin mRNAs in RRL; test: Polysome profiling of RRL translating endogenous mRNA; type: biochemical, rabbit; settings: 4 μM PR20, 4 μM GR20, 1 mM GDPCP; 5 min
Method: Polysome profiles were obtained using RRL untreated with nuclease, so that it contained endogenous mRNA. 100 μl reactions containing 50% RRL (Green Hectare) 30 μM hemin (Sigma), 75 mM KCl, 0.5 mM MgCl2, 1 mM ATP, 0.2 mM GTP, 2.1 mg/ml creatine phosphate, 30 μM of L-amino acid mix, 15 mg/ml yeast tRNA, 6 mM BME and, when appropriate, translation inhibitors (4 μM PR20, 4 μM GR20, cycloheximide, 40 μM harringtonine, or 1 mM GDPCP with 1 mM MgCl2) were assembled on ice. To start translation, the reactions were warmed in a heat block at either 30 °C or 37 °C as noted. After 5 min, reactions were terminated by addition of 100 μl of ice-cold Stop Buffer (50 mM Hepes-KOH pH 7.4, 150 mM KOAc, 10 mM Mg(OAc)2, and 200 μg/ml cycloheximide). The stopped reactions were applied to 10–50% sucrose gradients in Gradient Buffer (50 mM Hepes-KOH pH 7.4, 150 mM KOAc, 10 mM Mg(OAc)2, 2 mM DTT, and 100 μg/ml cycloheximide) and spun in an SW-41 rotor (Beckman Coulter) at 197,568xg (avg) for 2 h at 4 °C. Gradients were pumped on a Gradient Station (BioComp Instruments) at a pump rate of 0.29 mm/min and the absorbance at 254 nm was measured by an Econo UV monitor (Biorad) zeroed with 10% sucrose-gradient buffer. The traces were output as CSV files and imported into GraphPad Prism, where the 80S peaks were aligned. Controls were highly reproducible day-to-day. Each experimental condition is shown compared to concurrent, uninhibited control.

[2] = test system: E. coli 70S ribosomes; test: Erythromycin competition in the puromycin assay on 70S ribosomes; type: biochemical; settings: 20 μM erythromycin and/or 2 μM PR20, 30 nM 70S, quenched at 300 s
Method: The assay was performed as described above for the puromycin kinetics, except that the 70S ribosomes were pre-incubated with 22 μM erythromycin for 5 min prior to adding PR20. The stock solution of erythromycin contained 2 mM erythromycin in ethanol, so the control reaction (70S with no erythromycin) and the reactions with erythromycin were prepared to contain the same amount of ethanol (1%). The final concentrations after addition of puromycin were: 30 nM 70S, 66 nM [^35S]-fMet-tRNA^fMet, 1 μM mRNA, 2 μM PR20 (no PR20 in the control reaction), 20 μM erythromycin (or no erythromycin in a control reaction), 50 µM puromycin (in 20 mM Tris-acetate (pH 7.0), 100 mM NH4OAc, 12 mM Mg(OAc)2 and 1% ethanol). Samples were quenched at 300 s when the uninhibited reaction had reached a plateau.

Compound	polysome profile, half-mer peaks [1]	fMet-puromycin formed ([2]; first column (replicate 1))	fMet-puromycin formed ([2]; second column (replicate 2))
N=C(N)NCCC[C@H](NC(=O)CNC(=O)[C@H](CCCNC(=N)N)NC(=O)CNC(=O)[C@H](CCCNC(=N)N)NC(=O)CNC(=O)[C@H](CCCNC(=N)N)NC(=O)CNC(=O)[C@H](CCCNC(=N)N)NC(=O)CNC(=O)[C@H](CCCNC(=N)N)NC(=O)CNC(=O)[C@H](CCCNC(=N)N)NC(=O)CNC(=O)[C@H](CCCNC(=N)N)NC(=O)CNC(=O)[C@H](CCCNC(=N)N)NC(=O)CNC(=O)[C@H](CCCNC(=N)N)NC(=O)CNC(=O)[C@H](CCCNC(=N)N)NC(=O)CNC(=O)[C@H](CCCNC(=N)N)NC(=O)CNC(=O)[C@H](CCCNC(=N)N)NC(=O)CNC(=O)[C@H](CCCNC(=N)N)NC(=O)CNC(=O)[C@H](CCCNC(=N)N)NC(=O)CNC(=O)[C@H](CCCNC(=N)N)NC(=O)CNC(=O)[C@H](CCCNC(=N)N)NC(=O)CNC(=O)[C@H](CCCNC(=N)N)NC(=O)CNC(=O)[C@H](CCCNC(=N)N)NC(=O)CNC(=O)[C@H](CCCNC(=N)N)NC(=O)CN)C(=O)O [GR20]	appearance of half-mer peaks	–	–
PRPRPRPRPRPRPRPRPRPRPRPRPRPRPRPRPRPRPRPR [PR20]	appearance of half-mer peaks	254	277

Source: article PMC9120013, “Ribosome inhibition by C9ORF72-ALS/FTD-associated poly-PR and poly-GR proteins revealed by cryo-EM” (Nature Communications, 2022)
